Measured values taken from patent US11690854B2, “Methods of treating heavy menstrual bleeding” (priority 2018, dated 2023).
“Also recorded” adds a separate entry of the source.

Legend:
[1] = tested on: women with endometriosis; test: Six Phase 2 studies of elagolix for endometriosis associated pain; format: in vivo, human
Procedure: Efficacy was assessed for dysmenorrhea (DYS), nonmenstrual pelvic pain (NMPP), dyspareunia, and general pelvic pain with a range of instruments. Additional efficacy assessments included quality of life and the use of analgesics for control of endometriosis pain. Across these Phase 2 studies, the enrollment criteria were similar and were intended to select premenopausal women aged 18 to 49 years of age with endometriosis confirmed by visual inspection (laparoscopy or laparotomy within 5 to 8 years of screening) who experienced moderate to severe endometriosis-associated pain. Women were included if they had regular menstrual cycles and no significant uterine fibroids or pelvic lesions. Total daily doses of elagolix ranging from 75 to 250 mg were evaluated across a range of pain instruments measuring […], or general pelvic pain (including patient global impression of change), during 12 or 24 weeks of treatment. […] Overall, 475 women have received elagolix for at least 12 weeks and 278 women for a period of at least 24 weeks. The majority of women were Caucasian (78.9% to 100%), while approximately 7% were black and approximately 4.5% were Hispanic. The mean age across these six Phase 2 studies was 31 to 33 years (range 18 to 48 years) and mean body mass index (BMI) of 23 to 28 kg/m. […] In addition, the majority were receiving analgesic medications (nonsteroidal anti-inflammatory drugs, opioids, and/or other) prior to study enrollment

[2] = molecular target: efflux transporter P-glycoprotein (P-gp) (Homo sapiens, UniProt P08183); test: Drug interaction potential: P-gp
efflux transporter P-glycoprotein (P-gp), sequence (P08183 whole entry): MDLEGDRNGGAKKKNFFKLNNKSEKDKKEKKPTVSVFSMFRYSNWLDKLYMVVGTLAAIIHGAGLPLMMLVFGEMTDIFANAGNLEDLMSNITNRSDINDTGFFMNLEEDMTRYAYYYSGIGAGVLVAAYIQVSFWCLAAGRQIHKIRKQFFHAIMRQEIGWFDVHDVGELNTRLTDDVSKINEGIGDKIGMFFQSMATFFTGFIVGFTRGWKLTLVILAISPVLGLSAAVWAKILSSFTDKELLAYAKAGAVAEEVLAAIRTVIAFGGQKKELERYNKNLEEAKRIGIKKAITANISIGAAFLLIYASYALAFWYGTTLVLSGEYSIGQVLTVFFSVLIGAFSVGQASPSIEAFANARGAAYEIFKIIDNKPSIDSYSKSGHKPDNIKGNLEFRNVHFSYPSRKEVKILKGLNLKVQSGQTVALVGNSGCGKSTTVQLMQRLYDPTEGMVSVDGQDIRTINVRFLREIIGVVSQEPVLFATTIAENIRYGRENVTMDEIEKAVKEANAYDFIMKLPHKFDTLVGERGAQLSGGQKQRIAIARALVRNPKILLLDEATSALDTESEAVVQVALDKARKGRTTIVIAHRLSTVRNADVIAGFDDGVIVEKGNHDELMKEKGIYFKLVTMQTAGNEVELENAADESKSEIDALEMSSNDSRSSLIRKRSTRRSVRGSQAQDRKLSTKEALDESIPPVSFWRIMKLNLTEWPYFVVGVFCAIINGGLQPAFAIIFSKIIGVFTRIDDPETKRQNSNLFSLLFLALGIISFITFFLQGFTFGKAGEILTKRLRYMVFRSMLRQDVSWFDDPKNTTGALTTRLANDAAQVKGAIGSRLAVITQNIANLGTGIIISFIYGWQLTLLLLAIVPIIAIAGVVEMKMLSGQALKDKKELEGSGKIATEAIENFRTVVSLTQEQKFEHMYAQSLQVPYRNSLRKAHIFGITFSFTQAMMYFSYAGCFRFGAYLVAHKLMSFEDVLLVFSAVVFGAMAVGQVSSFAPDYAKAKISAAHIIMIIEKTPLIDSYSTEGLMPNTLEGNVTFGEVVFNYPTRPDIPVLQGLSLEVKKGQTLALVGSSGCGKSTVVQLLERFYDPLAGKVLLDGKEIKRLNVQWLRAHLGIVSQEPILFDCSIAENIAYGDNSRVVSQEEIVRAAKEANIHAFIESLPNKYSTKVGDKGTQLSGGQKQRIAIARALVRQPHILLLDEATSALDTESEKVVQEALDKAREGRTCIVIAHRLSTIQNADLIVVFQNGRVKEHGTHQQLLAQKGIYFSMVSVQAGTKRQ
Procedure: Elagolix is an inhibitor of efflux transporter P-glycoprotein (P-gp) at 200 mg BID or higher, such as 300 mg BID or 400 mg QD or 600 mg QD. Co-administration with ELAGOLIX 200 mg BID may increase plasma concentration of drugs that are substrates of P-gp.
(§1) Elagolix is a substrate of CYP3A, P-gp, and organic anion transporting polypeptide (OATP)1B1. Clinically meaningful interactions are not expected when ELAGOLIX is co-administered with drugs that inhibit CYP3A or P-gp.

[3] = Pharmacokinetic properties of ELAGOLIX in healthy subjects; format: in vivo, human; settings: for AUC: plasma; for AUC / Cmax: steady state, mean
[4] = tested on: cytochrome P450 (CYP) 3A enzyme; test: Drug interaction potential: CYP3A
Description: Co-administration with ELAGOLIX may decrease plasma concentration of drugs that are substrates of CYP3A.
as §1

[5] = tested on: premenopausal women with endometriosis with associated pain; test: Phase 3 Studies EM-I and EM-II together, with extension studies; format: in vivo, human
Description: Each placebo-controlled study assessed the reduction in endometriosis-associated pain over 6 months of treatment. More than 75 percent of women who completed Study EM-I and EM-II enrolled in the extension studies for an additional 6 month treatment period. Subjects were followed for up to 12 months post-treatment. Women in these studies also provided a daily self-assessment of their endometriosis pain using the Numeric Rating Scale (NRS), on a scale ranging from 0 (no pain) to 10 (worst pain ever). […] The population age range was 18-49 years old. Women who completed six months of treatment and met eligibility criteria continued treatment in two blinded six-month extension studies, for a total treatment duration of up to 12 months. In the placebo-controlled and extension clinical studies, BMD was measured by DXA. Changes observed in BMD at other anatomical sites (femoral neck, total hip) were generally smaller than lumbar spine.

COc1cccc(-c2c(C)n(Cc3c(F)cccc3C(F)(F)F)c(=O)n(C[C@H](NCCCC(=O)O)c3ccccc3)c2=O)c1F [Elagolix, 4-((R)-2-[5-(2-fluoro-3-methoxy-phenyl)-3-(2-fluoro-6-trifluoromethyl-benzyl)-4-methyl-2,6-dioxo-3,6-dihydro-2H-pyrimidin-1-yl]-1-phenyl-ethylamino)-butyric acid]
Safety and tolerability ([1]; all daily doses (100 to 250 mg)): safe and well tolerated
Incidence of AEs that led to discontinuations ([1]; completed Phase 2 studies): 4.8%
Effect on DYS and NMPP versus DMPA-SC ([1]; daily dose of 150 mg): comparable effect to subcutaneous depot medroxyprogesterone acetate (DMPA-SC)
Effect versus leuprorelin ([1]; daily doses of 150 mg and 250 mg): less effect compared with leuprorelin
Reduction in endometriosis-associated pain ([1]; daily doses of 100 to 250 mg, 12 or 24 weeks): clinically meaningful reductions in endometriosis-associated pain
Days of bleeding per month (eDiary) ([1]; versus placebo): fewer days of bleeding per month compared with patients who received placebo
Substrate of P-gp [2]: substrate
Inhibition of P-gp ([2]; at 200 mg BID or higher, such as 300 mg BID or 400 mg QD or 600 mg QD): inhibitor
Tmax ([3]; healthy subjects): 1.0 h
blood plasma ratio ([3]; human, blood and plasma): 0.6
Major route of elimination ([3]; human, in vivo): Hepatic metabolism
Metabolism, minor pathways ([3]; human, in vivo): glucuronosyltransferases (UGTs)
half-life ([3]; human, in vivo, oral, healthy subjects, read-out: Terminal phase elimination half-life (t½)): 4 to 6 h
Metabolism, minor pathways ([3]; human, in vivo, listed as ELAGOLIX): Minor pathways include: CYP2D6,; also recorded: CYP2C8, and uridine
AUC ([3]; human, oral, 150 mg QD, τ 24 hours, % CV 31): 1290 ng·h/mL
AUC ([3]; human, oral, 200 mg BID, τ 12 hours, % CV 57): 1720 ng·h/mL
Metabolism ([3]; major pathway): CYP3A (major)
Cmax ([3]; 150 mg QD, % CV 29): 574 ng/mL
Cmax ([3]; 200 mg BID, % CV 68): 774 ng/mL
Induction of CYP3A [4]: weak to moderate inducer
Substrate of CYP3A [4]: substrate
Completed Suicide, % ([5]; 150 mg Once Daily (N = 475)): (0.2) %
Suicidal ideation, % ([5]; 150 mg Once Daily (N = 475)): (0.2) %
Depressed Mood, depression, depressive symptoms and or tearfulness, % ([5]; 150 mg Once Daily (N = 475), placebo 2.3): (2.7) %
Mood altered, mood swings, % ([5]; 150 mg Once Daily (N = 475), placebo 3.4): (5.7) %
Mean Intensity score (1 = spotting to 4 = heavy) ([5]; 150 mg Once Daily, Month 3, baseline 2.6, placebo 2.6 to 2.4): 2.2
Mean bleeding/spotting days in prior 28 days ([5]; 150 mg Once Daily, Month 3, baseline 5.3, placebo 5.4 to 4.6): 2.8 days
Discontinuations due to hot flush ([5]; 150 mg QD): 0.8%
Discontinuations due to nausea ([5]; 150 mg QD): 0.8%
Numeric Rating Scale (NRS) endometriosis pain scores ([5]; 150 mg QD and 200 mg BID, Month 3 and Month 6): highly statistically (p<0.001) significant reduction in NRS scores compared to placebo
Percentage of patients with adverse reaction: Anxiety ([5]; 150 mg QD, N = 475, placebo 3): 3%
Percentage of patients with adverse reaction: Arthralgia ([5]; 150 mg QD, N = 475, placebo 3): 3%
Percentage of patients with adverse reaction: Insomnia ([5]; 150 mg QD, N = 475, placebo 3): 6%
Percentage of patients with adverse reaction: Nasopharyngitis ([5]; 150 mg QD, N = 475, placebo 4): 6%
Percentage of patients with adverse reaction: Sinusitis ([5]; 150 mg QD, N = 475, placebo 4): 5%
Percentage of patients with adverse reaction: Upper Respiratory Tract Infection ([5]; 150 mg QD, N = 475, placebo 5): 6%
Percentage of patients with adverse reaction: Hot Flush ([5]; 150 mg QD, N = 475, placebo 9): 23%
Percentage of patients with adverse reaction: Headache ([5]; 150 mg QD, N = 475, placebo 12): 17%
Percentage of patients with adverse reaction: Nausea ([5]; 150 mg QD, N = 475, placebo 13): 11%
Percentage of patients with adverse reaction: Amenorrhoea ([5]; 150 mg QD, N = 475, placebo <1): 4%
Mean increase from pretreatment baseline in HDL-C ([5]; 150 mg QD, 6-month treatment): 2.24 mg/dL
Mean increase from pretreatment baseline in LDL-C ([5]; 150 mg QD, 6-month treatment): 5.25 mg/dL
Mean increase from pretreatment baseline in triglycerides ([5]; 150 mg QD, 6-month treatment): 0.42 mg/dL
Patients who discontinued therapy due to adverse reactions ([5]; 150 mg QD, EM-I and EM-II): 5.5%
